Measurements: patent US11325899B2, “Benzofurane and benzothiophene derivatives as PGE2 receptor modulators” (IDORSIA PHARMACEUTICALS LTD, priority 2017, dated 2022)

Columns and labels:
Format in all cases: cell-based
[1] = biological target: T1, PTGER2 (EP2) (Homo sapiens, UniProt P43116); experiment: hEP2 b-arrestin assay (PathHunter HEK 293 PTGER2 b-arrestin cells); settings: antagonistic activity, beta-arrestin assay; read-out: hEP2 b-arr IC50
T1 construct: host or cells: HEK 293 (PathHunter PTGER2 b-arrestin cell line)
Summary of the method: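 PathHunter HEK293 cells with ProLink-tagged EP2 and EA-β-arrestin 2 preincubated 15 min at 37 °C with compound (10 μM-2 nM or 1 μM-0.2 nM), then stimulated 120 min with 5 μM PGE2 (EC80). β-gal complementation read by chemiluminescence; IC50 from duplicate dose-response versus DMSO.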

[2] = biological target: T2, EP4 receptor (Homo sapiens, UniProt P35408); experiment: hEP4 cAMP assay (BT549 breast cancer cells, HTRF cAMP, PGE2 stimulation); settings: antagonistic activity, PGE2 6 nM (EC80)
T2 construct: BT549 breast cancer cells, express high endogenous EP4 levels and very low EP2 levels; host or cells: BT549 breast cancer cells
Procedure: (§1) The antagonistic activities of the compounds of formula (I) on the EP2 and EP4 receptors are also determined in accordance with the following experimental method.
(§2) Human tumor cell lines expressing endogenously either EP4 or EP2 are used and cAMP accumulation in cells upon PGE2 stimulation is monitored. SF295 glioblastoma cells express high endogenous EP2 and no EP4, whereas BT549 breast cancer cells, express high endogenous EP4 levels and very low EP2 levels.
(§3) As a detection method for cAMP the HTRF (homogeneous time resolved fluorescence) Cisbio kit (HTRF cAMP dynamic 2 kit 20′000 tests Cisbio Cat. #62AM4PEC) was used, which is based on a competitive immunoassay using a Cryptate-labeled anti-cAMP antibody and d2-labeled cAMP. Native cAMP produced by cells or unlabeled cAMP (for the standard curve) compete with exogenously added d2-labeled cAMP (acceptor) for binding to monoclonal anti-cAMP-Eu3+ Cryptate (donor). A FRET signal (Fluorescence Resonance Energy Transfer) is obtained only if the labeled anti-cAMP antibody binds the d2 labelled cAMP, thus the specific signal (i.e. energy transfer) is inversely proportional to the concentration of cAMP in the standard or sample.
(§4) The BT549 cells (NCI/No. 0507282) are detached from culture dishes with a cell dissociation buffer (Invitrogen, 13151-014), and collected in growing medium (GM: RPMI1640 (Invitrogen 21875)/10% FCS, 1% Penicilin/streptomycin). Cells are counted washed and resuspended in assay buffer (AB; HBSS, 20 mM HEPES, 0.2% BSA; 2 mM IBMX). 4′000 cells in 5 μl of AB are seeded per well of a small volume 384 well plate (black with flat bottom, Greiner 784076).
Stock solutions of test compounds are made at a concentration of 10 mM in DMSO, and serially diluted in DMSO to concentrations required for inhibition dose response curves (tested concentration range 30 μM-0.4 nM; 30 μM-0.015 nM or 1 uM-0.01 nM).
PGE2 (Cayman 14010, stock solution: 6 μM in DMSO) is used as agonist at 6 nM final concentration, corresponding to EC80.
(§5) Two point five microliters of diluted compounds are transferred into the assay plate. Plate is pre-incubated 45 minutes at room temperature. Subsequently, 2.5 microliters of PGE2 (final conc. 6 nM) are transferred into the assay plate. Plate is incubated 30 minutes at room temperature. Five μl of each donor (anti-cAMP cryptate) and acceptor (cAMP-d2) are added and the plate is incubated another hour at room temperature in the dark and then read using a BMG LABTECH PHERAstar reader (Excitation:337 nm, Emission:620 and 665 nm).
(§6) The obtained Delta F(fluorescence) values (665 nm/620 nM) are converted into % cAMP values using the measurements of the cAMP calibrator provided in the kit. For each compound concentration the percentage of cAMP compared to DMSO control value as average±STDEV (each concentration is measured in duplicate) is calculated.
(§7) IC50 values and curves are generated with XLfit software (IDBS) using Dose-Response One Site model 203. When compounds were measured multiple times, mean values are given.

[3] = biological target: T3, EP2 receptor (Homo sapiens, UniProt P43116); experiment: hEP2 cAMP assay (SF295 glioblastoma cells, HTRF cAMP, PGE2 stimulation); settings: antagonistic activity
T3 construct: SF295 glioblastoma cells express high endogenous EP2 and no EP4; host or cells: SF295 glioblastoma cells
Procedure: as §1, §2, §3
as §4, with “SF295” for “BT549”, “0503170)” for “0507282)”, “RPM1640” for “RPMI1640”
Stock solutions of test compounds are made at a concentration of 10 mM in DMSO, and serially diluted in DMSO to concentrations required for inhibition dose response curves (tested concentration range 30 μM-0.4 nM; 30 μM-0.015 nM or 1 μM-0.01 nM).
PGE2 (Cayman 14010, stock solution: 75 μM in DMSO) is used as agonist at 75 nM final concentration, corresponding to EC80.
as §5, with “conc. 75” for “conc. 6”, “reader (Excitation: 337” for “reader (Excitation:337”, “nm, Emission: 620” for “nm, Emission:620”
as §6, with “F (fluorescence)” for “F(fluorescence)”
as §7

[4] = biological target: T4, PTGER4 (EP4) (Homo sapiens, UniProt P35408); experiment: hEP4 b-arrestin assay (PathHunter HEK 293 PTGER4 b-arrestin cells); settings: antagonistic activity, beta-arrestin assay; read-out: hEP4 b-arr IC50
T4 construct: host or cells: HEK 293 (PathHunter PTGER4 b-arrestin cell line)
Summary of the method: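 PathHunter HEK 293 cells expressing ProLink-tagged human EP4 and EA-β-arrestin 2, seeded 24 h before. Compounds (10 μM–2 nM or 1 μM–0.2 nM) preincubated 15 min at 37 °C, then 20 nM PGE2 (EC80) for 120 min at 37 °C. β-gal complementation luminescence read; IC50 from duplicate dose-response curves versus DMSO control.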

T3 sequence (P43116 whole entry): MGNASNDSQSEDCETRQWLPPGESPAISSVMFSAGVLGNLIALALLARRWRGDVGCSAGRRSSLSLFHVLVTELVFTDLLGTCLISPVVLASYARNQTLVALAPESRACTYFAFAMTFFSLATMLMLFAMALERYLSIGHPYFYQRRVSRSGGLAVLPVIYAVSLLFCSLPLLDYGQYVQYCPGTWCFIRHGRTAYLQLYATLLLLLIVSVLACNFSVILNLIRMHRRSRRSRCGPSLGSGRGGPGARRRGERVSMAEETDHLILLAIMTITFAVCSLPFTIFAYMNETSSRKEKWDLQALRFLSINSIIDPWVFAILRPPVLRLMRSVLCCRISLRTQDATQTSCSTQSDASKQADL
T1 sequence (P43116 whole entry): as above
T4 sequence (P35408 whole entry): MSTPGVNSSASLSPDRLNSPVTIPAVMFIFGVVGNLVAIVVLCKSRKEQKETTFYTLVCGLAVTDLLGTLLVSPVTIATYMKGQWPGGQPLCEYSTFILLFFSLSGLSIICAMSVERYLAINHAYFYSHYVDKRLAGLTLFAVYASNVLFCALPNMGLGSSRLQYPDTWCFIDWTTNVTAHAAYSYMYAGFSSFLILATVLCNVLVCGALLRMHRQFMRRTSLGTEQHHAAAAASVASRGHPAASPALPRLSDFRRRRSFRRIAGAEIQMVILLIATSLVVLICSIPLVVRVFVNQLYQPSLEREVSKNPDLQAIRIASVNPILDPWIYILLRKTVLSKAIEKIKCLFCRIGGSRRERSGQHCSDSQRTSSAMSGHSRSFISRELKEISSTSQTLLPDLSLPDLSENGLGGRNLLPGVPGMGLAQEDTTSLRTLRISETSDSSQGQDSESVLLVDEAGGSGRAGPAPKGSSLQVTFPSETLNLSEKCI
T2 sequence (P35408 whole entry): as above

Row | IC50 [1] [µM] | IC50 [2] [µM] | IC50 [3] [µM] | IC50 [4] [µM] | Compound
1 | 0.031 | 0.264 | 0.107 |  | CCOc1cc(-c2cc(NCCc3c(C)oc4c(Cl)cccc34)ncn2)ccc1CC(=O)O [Example 108, (4-{6-[2-(7-Chloro-2-methyl-benzofuran-3-yl)-ethylamino]-pyrimidin-4-yl}-2-ethoxy-phenyl)-acetic acid]
2 | 0.036 | 0.362 | 0.035 |  | CCCc1cc(-c2cc(NCCc3c(C)sc4c(C)cc(F)cc34)ncn2)cc(F)c1C(=O)O [Example 93, 2-Fluoro-4-{6-[2-(5-fluoro-2,7-dimethyl-benzo[b]thiophen-3-yl)-ethylamino]-pyrimidin-4-yl}-6-propyl-benzoic acid]
3 | 0.013 | 0.271 | 0.076 |  | CCOc1cc(-c2cc(NCCc3c(C)sc4c(C)cc(F)cc34)ncn2)ccc1NC(=O)C(=O)O [Example 145, N-(2-Ethoxy-4-{6-[2-(5-fluoro-2,7-dimethyl-benzo[b]thiophen-3-yl)-ethylamino]-pyrimidin-4-yl}-phenyl)-oxalamic acid]
4 |  | 0.005 | 0.011 | 0.003 | CCOc1cc(-c2cc(NCCc3c(C)sc4c(C)cc(F)cc34)ncn2)sc1-c1noc(=O)[nH]1 [Example 159, 3-(3-Ethoxy-5-{6-[2-(5-fluoro-2,7-dimethyl-benzo[b]thiophen-3-yl)-ethylamino]-pyrimidin-4-yl}-thiophen-2-yl)-[1,2,4]oxadiazol-5(4H)-one [tautomeric form: 3-(3-ethoxy-5-(6-((2-(5-fluoro-2,7-dimethylbenzo[b]thiophen-3-yl)ethyl)amino)pyrimidin-4-yl)thiophen-2-yl)-[1,2,4]oxadiazol-5-ol]]
5 |  | 0.323 | 0.392 | 0.202 | Cc1sc2c(C)cc(F)cc2c1CCNc1cc(-c2ccc(-c3cc(O)no3)cc2)ncn1 [Example 81, 5-(4-{6-[2-(5-Fluoro-2,7-dimethyl-benzo[b]thiophen-3-yl)-ethylamino]-pyrimidin-4-yl}-phenyl)-isoxazol-3-ol [tautomeric form: 5-(4-(6-((2-(5-fluoro-2,7-dimethylbenzo[b]thiophen-3-yl)ethyl)amino)pyrimidin-4-yl)phenyl)isoxazol-3(2H)-one]]
6 |  | 0.781 | 0.477 | 0.246 | CCOc1cc(-c2cc(NCCc3c(C)sc4c(Cl)ccc(Cl)c34)ncn2)ccc1CC(=O)O [Example 114, (4-{6-[2-(4,7-Dichloro-2-methyl-benzo[b]thiophen-3-yl)-ethylamino]-pyrimidin-4-yl}-2-ethoxy-phenyl)-acetic acid]
7 |  | 0.765 | 0.284 | 0.209 | CCOc1cc(-c2cc(NCCc3c(C)sc4c(Cl)cc(F)cc34)ncn2)ccc1CC(=O)O [Example 113, (4-{6-[2-(7-Chloro-5-fluoro-2-methyl-benzo[b]thiophen-3-yl)-ethylamino]-pyrimidin-4-yl}-2-ethoxy-phenyl)-acetic acid]
8 | 0.026 | 0.31 | 0.115 |  | CCOc1cc(-c2cc(NCCc3c(C)oc4c(C)cc(F)cc34)ncn2)ccc1OCC(=O)O [Example 124, (2-Ethoxy-4-{6-[2-(5-fluoro-2,7-dimethyl-benzofuran-3-yl)-ethylamino]-pyrimidin-4-yl}-phenoxy)-acetic acid]
9 | 0.045 | 0.302 | 0.092 |  | Cc1sc2c(C)cc(F)cc2c1CCNc1cc(-c2ccc(C(=O)O)c(CC(C)C)c2)ncn1 [Example 94, 4-{6-[2-(5-Fluoro-2,7-dimethyl-benzo[b]thiophen-3-yl)-ethylamino]-pyrimidin-4-yl}-2-isobutyl-benzoic acid]
10 |  | 0.247 | 0.396 | 0.159 | CCOc1cc(-c2cc(NCCc3c(C)oc4c(OC)cc(Cl)cc34)ncn2)ccc1CC(=O)O [Example 106, (4-{6-[2-(5-Chloro-7-methoxy-2-methyl-benzofuran-3-yl)-ethylamino]-pyrimidin-4-yl}-2-ethoxy-phenyl)-acetic acid]
11 |  | 0.855 | 0.647 | 0.484 | CCOc1cc(-c2cc(NCCc3c(C)sc4c(C)cc(F)cc34)ncn2)sc1CC(=O)OC [Example 95, (3-Ethoxy-5-{6-[2-(5-fluoro-2,7-dimethyl-benzo[b]thiophen-3-yl)-ethylamino]-pyrimidin-4-yl}-thiophen-2-yl)-acetic acid methyl ester]
12 | 0.013 | 0.306 | 0.02 |  | Cc1sc2c(C)cc(F)cc2c1CCNc1cc(-c2cc3ccc(C(=O)O)cc3[nH]2)ncn1 [Example 80, 2-{6-[2-(5-Fluoro-2,7-dimethyl-benzo[b]thiophen-3-yl)-ethylamino]-pyrimidin-4-yl}-1H-indole-6-carboxylic acid]
13 |  | 0.004 | 0.011 | 0.002 | CCOc1cc(-c2cc(NCCc3c(C#N)sc4c(OC)cccc34)ncn2)sc1C(=O)O [Example 27, 5-{6-[2-(2-Cyano-7-methoxy-benzo[b]thiophen-3-yl)-ethylamino]-pyrimidin-4-yl}-3-ethoxy-thiophene-2-carboxylic acid]
14 |  | 0.433 | 0.561 | 0.197 | CCOc1cc(-c2cc(NCCc3c(C)sc4c(C)ccc(Cl)c34)ncn2)ccc1CC(=O)O [Example 111, (4-{6-[2-(4-Chloro-2,7-dimethyl-benzo[b]thiophen-3-yl)-ethylamino]-pyrimidin-4-yl}-2-ethoxy-phenyl)-acetic acid]

Row | Compound | IC50 [1] [µM] | IC50 [2] [µM] | IC50 [3] [µM] | IC50 [4] [µM]
15 | (4-{6-[2-(4,5-Difluoro-7-methoxy-2-methyl-benzofuran-3-yl)-ethylamino]-pyrimidin-4-yl}-2-ethoxy-phenoxy)-acetic acid [Example 123] |  | 0.219 | 0.359 | 0.142
